The numbers were not newly measured in US20200138792A1, “PHARMACEUTICAL COMBINATIONS OF ZONISAMIDE AND PRAMIPEXOLE, AND RELATED METHODS, FOR TREATING SYNUCLEINOPATHIES” (CHASE THERAPEUTICS CORPORATION, priority 2017, published 2020), which cites them from elsewhere.

The subject of series [1] is nigrostriatal dopaminergic neurons. The note with it: chronic administration.
The test system of series [2] is nigral TH-positive neurons. The note with it: 20 mg/kg, MPTP-treated mice.
The test system of another series is nigral dopamine neurons. The note with it: 30 mg/kg injection, 6-OHDA mice.
For another series, the target named is T1, A53T α-synuclein (Homo sapiens, UniProt P37840, A53T).
T1 construct: host or cells: rat brain in vivo, transduced with a viral vector
As to conditions: 40 mg/kg/day oral.

The target of the next series is alpha-synuclein (Homo sapiens, UniProt P37840).
The conditions of series [3]: 25 mg-50 mg, alone or with levodopa.
The conditions of series [4]: 5 mg/day of pramipexole.
Series [5] deals with human neuroblastoma SH-SY5Y cells.
The target of series [6] is human wild-type alpha-synuclein (Homo sapiens, UniProt P37840). As to conditions: hydrogen peroxide plus cytochrome c.

As for `NS(=O)(=O)Cc1noc2ccccc12` [zonisamide, 1,2-benzisoxazole-3-methanesulfonamide], in series [1], the “brain-derived neurotrophic factor content in striatum and ventral midbrain vs saline” value was “increased”; the “survival of nigrostriatal dopaminergic neurons, striatal dopaminergic terminals and motor function vs saline” value is listed as “improved”. Further, in [2], the “loss of nigral TH-positive neurons” value is listed as “reduced the loss of nigral TH-positive neurons” and the striatal dopamine depletion result is given as “attenuating the associated striatal dopamine depletion”. Further, the “loss of nigral dopamine neurons” value in the series with nigral dopamine neurons was “prevented the loss of nigral dopamine neurons”. Further, the “survival of nigrostriatal dopamine neurons” value at A53T α-synuclein was “no impact”. At A53T α-synuclein (four weeks after injection of viral vector for A53T α-synuclein gene), the “pace of degeneration vs control group” value is “significantly delayed”. Further, the “in vitro oligomerization and aggregation of alpha-synuclein” value on alpha-synuclein is “inhibits”. In addition, in series [3], the “motor symptoms in patients with PD” value is “improve motor symptoms”.
Regarding `CCCN[C@H]1CCc2nc(N)sc2C1` [pramipexole, (S)-6-propylamino-4,5,6,7-tetrahydro-1,3-benzothiazole-2-amine], in [4], the “nausea, patients affected” value is listed as 76% and the “vomiting, patients affected” value is reported as 39%. In series [4] (presumably intolerable GI adverse events), the “patients not able to complete the study” value is 36%. Besides, the aggregation of alpha-synuclein result in series [5] was “inhibit”. In addition, the “toxic effects of rotenone on dopaminergic neurons” value in the series on dopaminergic neurons (mouse PD model) is reported as “inhibits”. In the series with dopaminergic neurons (rotenone mouse PD model), the immunoreactivity for alpha-synuclein result is “reducing”. At alpha-synuclein, the “in vitro oligomerization and aggregation of alpha-synuclein” value was “diminishes synuclein oligomer formation”. For the same molecule, in [6], the “in vitro oligomerization of human wild-type alpha-synuclein” value was “decreases”.
